Experimental data taken from ChEMBL document CHEMBL3822420, “New peptide deformylase inhibitors design, synthesis and pharmacokinetic assessment” (Bioorg Med Chem Lett, 2016).
≈ marks a conversion by molar mass, not a printed value.

Columns and labels:
[1] = Tmax in Sprague-Dawley rat at 10 mg/kg, po; type: ADME, organism-based; details: in vivo
Staphylococcus aureus [2] = assay: Antibacterial activity against methicillin-resistant Staphylococcus aureus 14-2; type: functional
[3] = tested on: Staphylococcus epidermidis; assay: Antibacterial activity against methicillin-sensitive Staphylococcus epidermidis 14-1; type: functional
Staphylococcus aureus [4] = assay: Antibacterial activity against methicillin-resistant Staphylococcus aureus 14-5; type: functional
[5] = tested on: Staphylococcus epidermidis; assay: Antibacterial activity against methicillin-resistant Staphylococcus epidermidis 14-4; type: functional
[6] = Oral bioavailability in Sprague-Dawley rat at 10 mg/kg; type: ADME, organism-based; details: in vivo
Enterococcus faecalis [7] = assay: Antibacterial activity against Enterococcus faecalis 14-1; type: functional
Rattus norvegicus [8] = assay: Volume of distribution at steady state in Sprague-Dawley rat at 10 mg/kg, po; type: ADME, organism-based; details: in vivo
Escherichia coli [9] = assay: Antibacterial activity against Escherichia coli 14-1 expressing extended-spectrum beta-lactamase; type: functional
[10] = Half life in Sprague-Dawley rat at 10 mg/kg, po; type: ADME, organism-based; details: Sprague-Dawley, in vivo
Staphylococcus aureus [11] = assay: Antibacterial activity against methicillin-resistant Staphylococcus aureus 14-4; type: functional
[12] = Cmax in Sprague-Dawley rat at 10 mg/kg, po; type: ADME, organism-based; parameters: dose 10 mg/kg, route oral; details: in vivo
[13] = (§1) AUC (0 to infinity) in Sprague-Dawley rat at 2 mg/kg, iv; type: ADME, organism-based; parameters: dose 2 mg/kg, route intravenous, time infinity; details: Sprague-Dawley, in vivo
[14] = tested on: Staphylococcus epidermidis; assay: Antibacterial activity against methicillin-resistant Staphylococcus epidermidis 14-1; type: functional
Escherichia coli [15] = assay: Antibacterial activity against Escherichia coli 14-2 expressing extended-spectrum beta-lactamase; type: functional
[16] = Clearance in Sprague-Dawley rat at 2 mg/kg, iv; type: ADME, organism-based; details: in vivo
Enterococcus faecalis [17] = assay: Antibacterial activity against Enterococcus faecalis 14-2; type: functional
Staphylococcus aureus [18] = assay: Antibacterial activity against methicillin-sensitive Staphylococcus aureus 14-4; type: functional
Escherichia coli [19] = assay: Antibacterial activity against Escherichia coli 14-2; type: functional
[20] = MRT (0 to t) in Sprague-Dawley rat at 2 mg/kg, iv; type: ADME, organism-based; details: in vivo
Staphylococcus aureus [21] = assay: Antibacterial activity against methicillin-resistant Staphylococcus aureus 14-1; type: functional
[22] = tested on: Staphylococcus epidermidis; assay: Antibacterial activity against methicillin-resistant Staphylococcus epidermidis 14-2; type: functional
[23] = Clearance in Sprague-Dawley rat at 10 mg/kg, po; type: ADME, organism-based; details: Sprague-Dawley, in vivo
[24] = AUC (0 to t) in Sprague-Dawley rat at 10 mg/kg, po; type: ADME, organism-based; details: in vivo
[25] = Tmax in Sprague-Dawley rat at 2 mg/kg, iv; type: ADME, organism-based; details: in vivo
[26] = tested on: Staphylococcus epidermidis; assay: Antibacterial activity against methicillin-sensitive Staphylococcus epidermidis 14-3; type: functional
[27] = Cmax in Sprague-Dawley rat at 2 mg/kg, iv; type: ADME, organism-based; parameters: dose 2 mg/kg, route intravenous; details: in vivo
[28] = tested on: Staphylococcus epidermidis; assay: Antibacterial activity against methicillin-sensitive Staphylococcus epidermidis 14-2; type: functional
Staphylococcus aureus [29] = assay: Antibacterial activity against methicillin-sensitive Staphylococcus aureus 14-1; type: functional
[30] = Volume of distribution at steady state in Sprague-Dawley rat at 2 mg/kg, iv; type: ADME, organism-based; details: in vivo, read-out: Vdss
[31] = Half life in Sprague-Dawley rat at 2 mg/kg, iv; type: ADME, organism-based; details: in vivo
Staphylococcus aureus [32] = assay: Antibacterial activity against methicillin-sensitive Staphylococcus aureus 14-2; type: functional
Escherichia coli [33] = assay: Antibacterial activity against Escherichia coli 14-1; type: functional
[34] = AUC (0 to infinity) in Sprague-Dawley rat at 10 mg/kg, po; type: ADME, organism-based; parameters: dose 10 mg/kg, time infinity, route oral; details: Sprague-Dawley, in vivo
Staphylococcus aureus [35] = assay: Antibacterial activity against methicillin-sensitive Staphylococcus aureus 14-3; type: functional
[36] = (§2) AUC (0 to t) in Sprague-Dawley rat at 2 mg/kg, iv; type: ADME, organism-based; details: Sprague-Dawley, in vivo
Enterococcus faecalis [37] = assay: Antibacterial activity against Enterococcus faecalis 14-3; type: functional
[38] = tested on: Staphylococcus epidermidis; assay: Antibacterial activity against methicillin-resistant Staphylococcus epidermidis 14-3; type: functional
Enterococcus faecalis [39] = assay: Antibacterial activity against Enterococcus faecalis 14-5; type: functional
[40] = MRT (0 to t) in Sprague-Dawley rat at 10 mg/kg, po; type: ADME, organism-based; details: in vivo
Rattus norvegicus [41] = assay: as §1; type: ADME, organism-based; parameters: dose 2 mg/kg, route intravenous, time infinity; details: in vivo
Rattus norvegicus [42] = assay: as §2; type: ADME, organism-based; details: in vivo

## CCCC[C@H](CN(O)C=O)C(=O)N1CC2(CC2)C[C@H]1C(=O)Nc1ccc(F)c[n+]1[O-]
[1]
  Tmax: 0.25 h
Staphylococcus aureus [2]
  MIC: 0.25 µg/mL (≈ 0.592 µM)
[3]
  MIC: 0.03 µg/mL (≈ 0.071 µM)
Staphylococcus aureus [4]
  MIC: 0.125 µg/mL (≈ 0.296 µM)
[5]
  MIC: 0.125 µg/mL (≈ 0.296 µM)
[6]
  bioavailability: 31%
Enterococcus faecalis [7]
  MIC: 0.25 µg/mL (≈ 0.592 µM)
Rattus norvegicus [8]
  Vdss: 39.4 L/kg
Escherichia coli [9]
  MIC: 1 µg/mL (≈ 2.37 µM)
[10]
  half-life: 4.94 h
Staphylococcus aureus [11]
  MIC: 0.125 µg/mL (≈ 0.296 µM)
[12]
  Cmax: 1850 ng/mL
[13]
  AUC(0-inf): 1280 ng·h/mL
[14]
  MIC: 0.03 µg/mL (≈ 0.071 µM)
Escherichia coli [15]
  MIC: 64 µg/mL (≈ 151 µM)
[16]
  clearance: 26.2 mL/min/kg
Enterococcus faecalis [17]
  MIC: 0.5 µg/mL (≈ 1.18 µM)
Staphylococcus aureus [18]
  MIC: 0.125 µg/mL (≈ 0.296 µM)
Escherichia coli [19]
  MIC: 64 µg/mL (≈ 151 µM)
[20]
  MRT last: 1.65 h
Staphylococcus aureus [21]
  MIC: 0.25 µg/mL (≈ 0.592 µM)
[22]
  MIC: 0.06 µg/mL (≈ 0.142 µM)
[23]
  CL/F: 91.3 mL/min/kg
[24]
  AUC(0-t): 1960 ng·h/mL
[25]
  Tmax: 8.4 min
[26]
  MIC: 0.03 µg/mL (≈ 0.071 µM)
[27]
  Cmax: 1780 ng/mL
[28]
  MIC: 0.125 µg/mL (≈ 0.296 µM)
Staphylococcus aureus [29]
  MIC: 0.125 µg/mL (≈ 0.296 µM)
[30]
  Vd: 2.6 L/kg
[31]
  half-life: 3.63 h
Staphylococcus aureus [32]
  MIC: 0.125 µg/mL (≈ 0.296 µM)
Escherichia coli [33]
  MIC: 128 µg/mL (≈ 303 µM)
[34]
  AUC(0-inf): 1990 ng·h/mL
Staphylococcus aureus [35]
  MIC: 0.125 µg/mL (≈ 0.296 µM)
[36]
  AUC(0-t): 1260 ng·h/mL
Enterococcus faecalis [37]
  MIC: 0.5 µg/mL (≈ 1.18 µM)
[38]
  MIC: 0.03 µg/mL (≈ 0.071 µM)
Enterococcus faecalis [39]
  MIC: 128 µg/mL (≈ 303 µM)
[40]
  MRT last: 2.04 h

## CCCC[C@H](CN(O)C=O)C(=O)N1CC2(CC2)C[C@H]1C(=O)Nc1ncc(C)s1
[1]
  Tmax: 0.58 h
[3]
  MIC: < 0.008 µg/mL
Staphylococcus aureus [4]
  MIC: < 0.008 µg/mL
[5]
  MIC: < 0.008 µg/mL
[6]
  bioavailability: 30%
Enterococcus faecalis [7]
  MIC: 0.125 µg/mL (≈ 0.306 µM)
Rattus norvegicus [8]
  Vdss: 36.5 L/kg
Escherichia coli [9]
  MIC: 0.125 µg/mL (≈ 0.306 µM)
[10]
  half-life: 5 h
[12]
  Cmax: 630 ng/mL
Rattus norvegicus [41]
  AUC: 653 ng·h/mL
Escherichia coli [15]
  MIC: 32 µg/mL (≈ 78.3 µM)
[16]
  clearance: 23.5 mL/min/kg
Enterococcus faecalis [17]
  MIC: 0.5 µg/mL (≈ 1.22 µM)
Staphylococcus aureus [18]
  MIC: < 0.008 µg/mL
Escherichia coli [19]
  MIC: 32 µg/mL (≈ 78.3 µM)
[20]
  MRT last: 1.74 h
[23]
  CL/F: 82.3 mL/min/kg
[24]
  AUC(0-t): 2080 ng·h/mL
[25]
  Tmax: 4.8 min
[26]
  MIC: < 0.008 µg/mL
[27]
  Cmax: 1090 ng/mL
[28]
  MIC: < 0.008 µg/mL
Staphylococcus aureus [29]
  MIC: < 0.008 µg/mL
[30]
  Vd: 3.6 L/kg
[31]
  half-life: 1.14 h
Staphylococcus aureus [32]
  MIC: < 0.008 µg/mL
Escherichia coli [33]
  MIC: 32 µg/mL (≈ 78.3 µM)
[34]
  AUC(0-inf): 2130 ng·h/mL
Staphylococcus aureus [35]
  MIC: < 0.008 µg/mL
Rattus norvegicus [42]
  AUCt: 653 ng·h/mL
Enterococcus faecalis [37]
  MIC: 0.5 µg/mL (≈ 1.22 µM)
Enterococcus faecalis [39]
  MIC: 0.25 µg/mL (≈ 0.612 µM)
[40]
  MRT last: 4.42 h

## CCCC[C@H](CN(O)C=O)C(=O)N1CC2(CC2)C[C@H]1c1nc(-c2cccnc2)no1
[1]
  Tmax: 0.25 h
Staphylococcus aureus [2]
  MIC: 0.5 µg/mL (≈ 1.21 µM)
[3]
  MIC: 0.125 µg/mL (≈ 0.302 µM)
Staphylococcus aureus [4]
  MIC: 0.5 µg/mL (≈ 1.21 µM)
[5]
  MIC: 0.5 µg/mL (≈ 1.21 µM)
[6]
  bioavailability: 40%
Enterococcus faecalis [7]
  MIC: 2 µg/mL (≈ 4.84 µM)
Rattus norvegicus [8]
  Vdss: 15.1 L/kg
Escherichia coli [9]
  MIC: 1 µg/mL (≈ 2.42 µM)
[10]
  half-life: 1.28 h
Staphylococcus aureus [11]
  MIC: 0.5 µg/mL (≈ 1.21 µM)
[12]
  Cmax: 893 ng/mL
[13]
  AUC(0-inf): 657 ng·h/mL
[14]
  MIC: 0.25 µg/mL (≈ 0.605 µM)
Escherichia coli [15]
  MIC: 32 µg/mL (≈ 77.4 µM)
[16]
  clearance: 51.2 mL/min/kg
Enterococcus faecalis [17]
  MIC: 2 µg/mL (≈ 4.84 µM)
Staphylococcus aureus [18]
  MIC: 0.5 µg/mL (≈ 1.21 µM)
Escherichia coli [19]
  MIC: 64 µg/mL (≈ 155 µM)
[20]
  MRT last: 0.61 h
Staphylococcus aureus [21]
  MIC: 0.5 µg/mL (≈ 1.21 µM)
[22]
  MIC: 0.25 µg/mL (≈ 0.605 µM)
[23]
  CL/F: 136 mL/min/kg
[24]
  AUC(0-t): 1280 ng·h/mL
[25]
  Tmax: 4.8 min
[26]
  MIC: 0.125 µg/mL (≈ 0.302 µM)
[27]
  Cmax: 929 ng/mL
[28]
  MIC: 0.5 µg/mL (≈ 1.21 µM)
Staphylococcus aureus [29]
  MIC: 0.5 µg/mL (≈ 1.21 µM)
[30]
  Vd: 1.9 L/kg
[31]
  half-life: 1.11 h
Staphylococcus aureus [32]
  MIC: 0.5 µg/mL (≈ 1.21 µM)
Escherichia coli [33]
  MIC: 64 µg/mL (≈ 155 µM)
[34]
  AUC(0-inf): 1300 ng·h/mL
Staphylococcus aureus [35]
  MIC: 0.5 µg/mL (≈ 1.21 µM)
[36]
  AUC(0-t): 654 ng·h/mL
Enterococcus faecalis [37]
  MIC: 2 µg/mL (≈ 4.84 µM)
[38]
  MIC: 0.125 µg/mL (≈ 0.302 µM)
Enterococcus faecalis [39]
  MIC: 2 µg/mL (≈ 4.84 µM)
[40]
  MRT last: 1.68 h
